Laboratory results from patent US11629143B2, “HipK4 inhibitors and uses thereof” (Vibliome Therapeutics, LLC, priority 2020, dated 2023).

How the values were obtained:
Experiment in all cases: Kinase panel (mobility shift)
Format in all cases: biochemical
DDR2 = target: T1, DDR2 (Homo sapiens, UniProt Q16832)
T1 sequence (Q16832 22-855): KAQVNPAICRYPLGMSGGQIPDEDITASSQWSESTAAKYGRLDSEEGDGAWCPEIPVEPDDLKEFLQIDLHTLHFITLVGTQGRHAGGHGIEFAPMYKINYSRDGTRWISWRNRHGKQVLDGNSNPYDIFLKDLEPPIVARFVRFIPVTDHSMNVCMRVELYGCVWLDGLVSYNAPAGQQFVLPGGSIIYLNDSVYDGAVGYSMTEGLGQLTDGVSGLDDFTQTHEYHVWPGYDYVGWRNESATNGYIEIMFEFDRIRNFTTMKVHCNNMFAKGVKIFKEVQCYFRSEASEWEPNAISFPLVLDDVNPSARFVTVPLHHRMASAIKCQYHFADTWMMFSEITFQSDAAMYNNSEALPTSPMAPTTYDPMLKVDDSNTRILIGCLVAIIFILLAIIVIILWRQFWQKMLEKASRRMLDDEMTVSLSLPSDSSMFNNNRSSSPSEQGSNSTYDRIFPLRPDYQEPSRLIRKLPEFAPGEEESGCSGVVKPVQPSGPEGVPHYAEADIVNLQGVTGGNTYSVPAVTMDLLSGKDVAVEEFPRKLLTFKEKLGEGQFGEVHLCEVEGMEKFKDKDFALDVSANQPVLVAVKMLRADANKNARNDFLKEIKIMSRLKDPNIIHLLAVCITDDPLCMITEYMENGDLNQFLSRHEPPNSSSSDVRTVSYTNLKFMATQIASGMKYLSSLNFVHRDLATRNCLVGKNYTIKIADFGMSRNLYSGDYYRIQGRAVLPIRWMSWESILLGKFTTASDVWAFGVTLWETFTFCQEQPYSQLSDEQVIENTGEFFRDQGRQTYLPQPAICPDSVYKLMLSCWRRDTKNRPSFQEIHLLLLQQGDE
In short: (§1)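 Tested at a single 5 um concentration within a 299-kinase panel, compounds were scored by electrophoretic mobility shift of a fluorescent substrate into product. Categories: A, 95% or greater; B, 90%-94%; C, 80%-89%.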

TRKB = TRKB (Homo sapiens, UniProt Q16620)
In short: as §1

P38-b = P38-b (Homo sapiens, UniProt Q15759)
In short: as §1

EPH-A5 = EPH-A5 (Homo sapiens, UniProt P54756); settings: at 5 um
In short: as §1

TAOK3 = target: T2, TAOK3 (Homo sapiens, UniProt Q9H2K8)
T2 sequence (Q9H2K8 1-898): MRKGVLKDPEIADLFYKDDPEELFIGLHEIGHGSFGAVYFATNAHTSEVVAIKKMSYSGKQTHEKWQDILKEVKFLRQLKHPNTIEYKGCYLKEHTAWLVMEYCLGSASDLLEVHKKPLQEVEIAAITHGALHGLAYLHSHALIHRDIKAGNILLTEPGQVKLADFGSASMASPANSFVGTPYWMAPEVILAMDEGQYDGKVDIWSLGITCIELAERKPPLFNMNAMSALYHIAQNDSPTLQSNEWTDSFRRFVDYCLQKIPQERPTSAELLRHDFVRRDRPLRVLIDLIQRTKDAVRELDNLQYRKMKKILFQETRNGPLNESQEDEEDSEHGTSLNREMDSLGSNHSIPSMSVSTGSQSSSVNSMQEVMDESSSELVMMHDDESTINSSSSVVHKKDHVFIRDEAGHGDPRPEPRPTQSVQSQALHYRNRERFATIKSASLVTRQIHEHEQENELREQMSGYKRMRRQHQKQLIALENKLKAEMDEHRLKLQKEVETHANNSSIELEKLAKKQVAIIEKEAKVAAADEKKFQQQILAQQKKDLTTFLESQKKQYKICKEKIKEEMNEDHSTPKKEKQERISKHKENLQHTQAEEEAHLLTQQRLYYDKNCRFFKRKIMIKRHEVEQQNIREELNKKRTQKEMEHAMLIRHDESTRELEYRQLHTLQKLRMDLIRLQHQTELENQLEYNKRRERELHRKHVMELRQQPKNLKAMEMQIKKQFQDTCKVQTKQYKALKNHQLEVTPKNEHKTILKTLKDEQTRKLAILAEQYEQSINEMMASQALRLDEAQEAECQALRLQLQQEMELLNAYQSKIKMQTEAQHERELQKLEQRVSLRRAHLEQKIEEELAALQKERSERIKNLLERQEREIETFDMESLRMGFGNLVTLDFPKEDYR
In short: as §1

Sequence of P38-b (Q15759 whole entry, species assumed): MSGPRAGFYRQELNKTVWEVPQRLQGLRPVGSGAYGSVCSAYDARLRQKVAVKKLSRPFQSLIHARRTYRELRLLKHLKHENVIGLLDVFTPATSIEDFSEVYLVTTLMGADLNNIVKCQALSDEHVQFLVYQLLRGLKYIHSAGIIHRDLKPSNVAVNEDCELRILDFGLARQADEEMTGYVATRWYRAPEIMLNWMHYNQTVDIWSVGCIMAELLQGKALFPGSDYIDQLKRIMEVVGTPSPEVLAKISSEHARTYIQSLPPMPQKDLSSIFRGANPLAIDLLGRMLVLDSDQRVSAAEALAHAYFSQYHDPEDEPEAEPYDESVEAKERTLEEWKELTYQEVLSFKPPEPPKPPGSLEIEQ
Sequence of TRKB (Q16620 32-822, species assumed): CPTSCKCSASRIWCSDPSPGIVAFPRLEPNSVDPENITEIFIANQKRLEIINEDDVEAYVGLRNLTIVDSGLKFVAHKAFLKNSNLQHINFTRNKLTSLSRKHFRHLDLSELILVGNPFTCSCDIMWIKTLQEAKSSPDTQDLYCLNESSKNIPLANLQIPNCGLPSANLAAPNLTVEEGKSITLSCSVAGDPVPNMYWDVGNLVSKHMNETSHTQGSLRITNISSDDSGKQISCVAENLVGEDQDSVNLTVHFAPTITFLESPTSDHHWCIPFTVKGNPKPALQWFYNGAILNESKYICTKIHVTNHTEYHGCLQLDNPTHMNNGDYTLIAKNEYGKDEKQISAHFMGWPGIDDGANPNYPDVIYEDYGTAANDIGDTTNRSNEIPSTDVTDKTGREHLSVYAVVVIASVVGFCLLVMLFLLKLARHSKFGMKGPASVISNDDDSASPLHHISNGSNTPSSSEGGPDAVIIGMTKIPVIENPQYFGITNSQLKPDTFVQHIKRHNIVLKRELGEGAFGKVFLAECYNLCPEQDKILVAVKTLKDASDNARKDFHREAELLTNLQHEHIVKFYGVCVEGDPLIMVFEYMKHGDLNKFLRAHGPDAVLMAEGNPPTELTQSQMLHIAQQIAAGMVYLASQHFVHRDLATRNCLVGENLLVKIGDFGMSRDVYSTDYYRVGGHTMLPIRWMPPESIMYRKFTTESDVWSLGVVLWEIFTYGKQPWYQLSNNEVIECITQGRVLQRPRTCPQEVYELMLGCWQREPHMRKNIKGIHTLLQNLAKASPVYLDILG
Sequence of EPH-A5 (P54756 25-1037, species assumed): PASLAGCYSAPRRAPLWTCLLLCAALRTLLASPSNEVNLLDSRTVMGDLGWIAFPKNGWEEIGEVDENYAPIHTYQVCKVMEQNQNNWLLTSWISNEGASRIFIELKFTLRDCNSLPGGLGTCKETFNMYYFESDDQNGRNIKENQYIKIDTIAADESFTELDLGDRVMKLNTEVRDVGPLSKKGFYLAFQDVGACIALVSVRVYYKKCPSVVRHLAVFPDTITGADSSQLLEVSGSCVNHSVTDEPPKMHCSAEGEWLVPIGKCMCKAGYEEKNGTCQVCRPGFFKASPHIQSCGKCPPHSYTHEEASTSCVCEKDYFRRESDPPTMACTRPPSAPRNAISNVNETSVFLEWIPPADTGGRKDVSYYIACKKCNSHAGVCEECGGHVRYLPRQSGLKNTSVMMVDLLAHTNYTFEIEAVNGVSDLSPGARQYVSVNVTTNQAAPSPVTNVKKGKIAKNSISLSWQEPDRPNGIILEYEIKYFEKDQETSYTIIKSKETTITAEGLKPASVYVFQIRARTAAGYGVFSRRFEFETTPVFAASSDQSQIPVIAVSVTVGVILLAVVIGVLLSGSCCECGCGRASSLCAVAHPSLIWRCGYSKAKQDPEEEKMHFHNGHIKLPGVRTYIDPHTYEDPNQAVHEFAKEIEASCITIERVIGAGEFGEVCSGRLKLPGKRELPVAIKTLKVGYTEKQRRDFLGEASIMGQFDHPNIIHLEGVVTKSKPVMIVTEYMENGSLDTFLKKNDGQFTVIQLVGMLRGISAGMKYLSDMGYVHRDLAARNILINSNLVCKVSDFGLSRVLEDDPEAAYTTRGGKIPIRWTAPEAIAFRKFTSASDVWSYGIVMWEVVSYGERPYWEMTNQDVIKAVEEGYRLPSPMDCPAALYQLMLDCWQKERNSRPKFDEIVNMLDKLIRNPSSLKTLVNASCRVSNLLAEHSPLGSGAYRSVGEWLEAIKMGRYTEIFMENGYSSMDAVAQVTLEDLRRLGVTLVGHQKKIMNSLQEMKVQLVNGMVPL

Compound | inhibition at 5 µM (DDR2) | inhibition at 5 µM (TRKB) | inhibition at 5 µM (P38-b) | inhibition of kinase activity, EPH-A5 (EPH-A5) | inhibition at 5 µM (TAOK3)
CSc1nc(C(=O)Nc2ccc(Oc3ccnc(N)c3Cl)c(F)c2)c(-c2ccc(F)cc2)o1 [Compound 1] | 50 to 79% | < 50% | < 50% | E (category E is less than 50%) | < 50%
CSc1nc(C(=O)Nc2ccc(Oc3cc4cnn(C)c4cc3Br)c(F)c2)c(-c2ccc(F)cc2)o1 [Compound 2] | 50 to 79% | < 50% | 50 to 79% | D (category D for 50-79) | < 50%
CNC(=O)c1cc(Oc2ccc(NC(=O)c3nc(SC)oc3-c3ccc(F)cc3Cl)cc2)ccn1 [Compound 3] | 80 to 89% | 80 to 89% | < 50% | E (category E is less than 50%) | < 50%
CNC(=O)c1cc(Oc2ccc(NC(=O)c3nc(SC)oc3-c3ccc(F)c(F)c3)cc2)ccn1 [Compound 4] | 80 to 89% | < 50% | 50 to 79% | E (category E is less than 50%) | 50 to 79%
CNC(=O)c1cc(Oc2ccc(NC(=O)c3nc(SC)oc3-c3ccc(Cl)s3)cc2)ccn1 [Compound 5] | 80 to 89% | < 50% | < 50% | E (category E is less than 50%) | < 50%
CNC(=O)c1cc(Oc2ccc(NC(=O)c3nc(SC)oc3-c3ccc(F)cc3F)cc2)ccn1 [Compound 6] | 80 to 89% | 90 to 94% | < 50% | E (category E is less than 50%) | < 50%
CNC(=O)c1cc(Oc2ccc(NC(=O)c3nc(SC)oc3-c3ccc(OC)cc3)cc2)ccn1 [Compound 7] | 80 to 89% | < 50% | < 50% | E (category E is less than 50%) | < 50%
CSc1nc(C(=O)Nc2ccc(Oc3ccnc(-c4cnn(C)c4)c3)c(F)c2)c(-c2ccc(F)cc2)o1 [Compound 11] | ≥ 95% | 50 to 79% | 80 to 89% | C (C=80%-89% at 5 um) | < 50%
CNC(=O)c1cc(Oc2ccc(NC(=O)c3nc(SC)oc3-c3ccc(F)cc3F)cc2F)ccn1 [Compound 12] | 80 to 89% | 80 to 89% | < 50% | D (category D for 50-79) | 50 to 79%
CNC(=O)c1cc(Oc2ccc(NC(=O)c3nc(S(C)(=O)=O)sc3-c3ccc(F)cc3)cc2F)ccn1 [Compound 13] | 80 to 89% | 50 to 79% | < 50% | D (category D for 50-79) | < 50%
CNC(=O)c1cc(Oc2ccc(NC(=O)c3nc(NC)oc3-c3ccc(F)cc3)cc2F)ccn1 [Compound 14] | ≥ 95% | 90 to 94% | < 50% | D (category D for 50-79) | 90 to 94%
CNC(=O)c1cc(Oc2ccc(NC(=O)c3nc(OC)oc3-c3ccc(F)cc3)cc2F)ccn1 [Compound 15] | 90 to 94% | 50 to 79% | < 50% | D (category D for 50-79) | < 50%
